Inconclusive results and toxic doses are left out.
System: L1210 leukemia ip in BDF1 mice, survival T/C
Experiment: NCI In Vivo Anticancer Drug Screen. Data for tumor model L1210 Leukemia (intraperitoneal) in B6D2F1 (BDF1) mice
Conditions: endpoint: mean survival time, higher = longer survival
Outline: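 Transplanted-tumor mice were given test agent; controls received vehicle only. Survival readings from the two groups were divided (treated over control).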

[1] = dose: 40.0 mg/kg/injection, schedule: Q04DX003 (ip), vehicle: Klucel (hydroxypropylcellulose) (HPC)
[2] = dose: 80.0 mg/kg/injection, schedule: Q04DX003 (ip), vehicle: Klucel (hydroxypropylcellulose) (HPC)
[3] = dose: 100.0 mg/kg/injection, schedule: Q04DX002 (ip), vehicle: saline with Tween-80
[4] = dose: 100.0 mg/kg/injection, schedule: Q04DX003 (ip), vehicle: saline
[5] = dose: 200.0 mg/kg/injection, schedule: Q04DX002 (ip), vehicle: saline with Tween-80
[6] = dose: 200.0 mg/kg/injection, schedule: Q04DX003 (ip), vehicle: saline
[7] = dose: 400.0 mg/kg/injection, schedule: Q04DX002 (ip), vehicle: saline with Tween-80
[8] = dose: 400.0 mg/kg/injection, schedule: Q04DX003 (ip), vehicle: saline
[9] = dose: 100.0 mg/kg/injection, schedule: Q01DX009 (ip), vehicle: saline
[10] = dose: 200.0 mg/kg/injection, schedule: Q01DX009 (ip), vehicle: saline
[11] = dose: 400.0 mg/kg/injection, schedule: Q01DX009 (ip), vehicle: saline
[12] = dose: 50.0 mg/kg/injection, schedule: Q01DX001 (ip), vehicle: saline
[13] = dose: 100.0 mg/kg/injection, schedule: Q01DX001 (ip), vehicle: saline
[14] = dose: 200.0 mg/kg/injection, schedule: Q01DX001 (ip), vehicle: saline
[15] = dose: 400.0 mg/kg/injection, schedule: Q01DX001 (ip), vehicle: saline
[16] = dose: 100.0 mg/kg/injection, schedule: Q01DX009 (ip), vehicle: Klucel (hydroxypropylcellulose) (HPC)
[17] = dose: 200.0 mg/kg/injection, schedule: Q01DX009 (ip), vehicle: Klucel (hydroxypropylcellulose) (HPC)
[18] = dose: 400.0 mg/kg/injection, schedule: Q01DX009 (ip), vehicle: Klucel (hydroxypropylcellulose) (HPC)
[19] = dose: 100.0 mg/kg/injection, schedule: Q04DX003 (ip), vehicle: saline with Tween-80
[20] = dose: 200.0 mg/kg/injection, schedule: Q04DX003 (ip), vehicle: saline with Tween-80
[21] = dose: 400.0 mg/kg/injection, schedule: Q04DX003 (ip), vehicle: saline with Tween-80
[22] = dose: 100.0 mg/kg/injection, schedule: Q04DX003 (ip), vehicle: Klucel (hydroxypropylcellulose) (HPC)
[23] = dose: 200.0 mg/kg/injection, schedule: Q04DX003 (ip), vehicle: Klucel (hydroxypropylcellulose) (HPC)
[24] = dose: 400.0 mg/kg/injection, schedule: Q04DX003 (ip), vehicle: Klucel (hydroxypropylcellulose) (HPC)
[25] = dose: 100.0 mg/kg/injection, schedule: Q01DX009 (ip), vehicle: saline with Tween-80
[26] = dose: 200.0 mg/kg/injection, schedule: Q01DX009 (ip), vehicle: saline with Tween-80

With [Cl][Pt+2][Cl].[NH-]C1CCCCC1.[NH-]C1CCCCC1 the T/C (dose: 25.0 mg/kg/injection, schedule: Q04DX003 (ip), vehicle: saline) was 100 % of control, the T/C [1] was 103 % of control and the T/C (dose: 50.0 mg/kg/injection, schedule: Q04DX003 (ip), vehicle: saline) was 110 % of control. For the same molecule, the T/C [2] was 103 % of control, the T/C [3] was 94 % of control and the T/C [4] was 103 % of control. The T/C (dose: 160.0 mg/kg/injection, schedule: Q04DX003 (ip), vehicle: Klucel (hydroxypropylcellulose) (HPC)) was 101 % of control, the T/C [5] was 117 % of control and the T/C [6] was 108 % of control. For the same molecule, the T/C (dose: 320.0 mg/kg/injection, schedule: Q04DX003 (ip), vehicle: Klucel (hydroxypropylcellulose) (HPC)) was 106 % of control, the T/C [7] was 102 % of control and the T/C [8] was 108 % of control. For the same molecule, the T/C (dose: 640.0 mg/kg/injection, schedule: Q04DX003 (ip), vehicle: Klucel (hydroxypropylcellulose) (HPC)) was 102 % of control.

In the case of CC12CCC(OC3OC(CO)C(O)C(O)C3O)CC1CCC1C2CCC2(C)C(C3=CC(=O)OC3)CCC12O (centres undefined), the T/C (dose: 10.0 mg/kg/injection, schedule: Q01DX009 (ip), vehicle: saline) was 101 % of control, the T/C (dose: 20.0 mg/kg/injection, schedule: Q01DX009 (ip), vehicle: saline) was 96 % of control and the T/C (dose: 40.0 mg/kg/injection, schedule: Q01DX009 (ip), vehicle: saline) was 102 % of control.

For CCN(CCO)CC1OC(OC)C2OC(C)(C)OC12 (centres undefined), the T/C [9] was 97 % of control, the T/C [4] was 98 % of control and the T/C [10] was 100 % of control. The T/C [6] was 95 % of control, the T/C [11] was 94 % of control and the T/C [8] was 96 % of control.

Cn1c(=O)c2[nH]c(CC3CCCC3)nc2n(C)c1=O was tested, and the T/C [12] was 104 % of control, the T/C [13] was 104 % of control and the T/C [14] was 101 % of control. The T/C [15] was 95 % of control.

In the case of CCOC(=O)C(C(C)=O)C(c1ccc2c(c1)OCO2)C(C(C)=O)C(=O)O (centres undefined), the T/C (dose: 25.6 mg/kg/injection, schedule: Q04DX002 (ip), vehicle: saline with Tween-80) was 100 % of control, the T/C (dose: 64.0 mg/kg/injection, schedule: Q04DX002 (ip), vehicle: saline with Tween-80) was 96 % of control and the T/C (dose: 160.0 mg/kg/injection, schedule: Q04DX002 (ip), vehicle: saline with Tween-80) was 103 % of control. The T/C [7] was 107 % of control.

With Cc1ccnc(NC(=O)Nc2cc(C)ccc2C)c1 the T/C [16] was 94 % of control, the T/C [17] was 91 % of control and the T/C [18] was 92 % of control.

For Cc1cc(C)c(C#[N+][O-])c(C)c1, the T/C (dose: 25.0 mg/kg/injection, schedule: Q04DX003 (ip), vehicle: saline with Tween-80) was 93 % of control and the T/C (dose: 50.0 mg/kg/injection, schedule: Q04DX003 (ip), vehicle: saline with Tween-80) was 98 % of control.

O=C1NS(=O)(=O)CS(=O)(=O)N1 was tested, and the T/C [13] was 108 % of control, the T/C [14] was 104 % of control and the T/C [15] was 101 % of control.

N#CC(NC(=O)NCCO)c1ccccc1 (centres undefined) was tested, and the T/C [19] was 107 % of control, the T/C [20] was 96 % of control and the T/C [21] was 101 % of control.

With CNC(=O)Nc1ccc(OC)cc1OC the T/C [16] was 105 % of control, the T/C [22] was 106 % of control and the T/C [17] was 94 % of control. The T/C [23] was 111 % of control, the T/C [18] was 98 % of control and the T/C [24] was 103 % of control.

With O=C1CCCCCCCC1O (centres undefined) the T/C [12] was 96 % of control, the T/C [13] was 98 % of control and the T/C [14] was 102 % of control. The T/C [15] was 104 % of control.

For CC(=O)OCC(OC(C)=O)C(OC(C)=O)C(OC(C)=O)C(O)CO (centres undefined), the T/C [4] was 96 % of control, the T/C [6] was 96 % of control and the T/C [8] was 96 % of control.

For O=C(O)CNCc1cccc(Br)c1, the T/C [9] was 103 % of control, the T/C [4] was 95 % of control and the T/C [10] was 92 % of control. The T/C [6] was 113 % of control, the T/C [11] was 98 % of control and the T/C [8] was 98 % of control.

With CC(=O)OC1CCC2(C)C(=CCC3C2CCC2(C)C3CC3C(c4ccccc4C)=NN(c4ccccc4)C32C#N)C1 (centres undefined) the T/C (dose: 12.5 mg/kg/injection, schedule: Q04DX002 (ip), vehicle: Klucel (hydroxypropylcellulose) (HPC)) was 102 % of control, the T/C (dose: 25.0 mg/kg/injection, schedule: Q04DX002 (ip), vehicle: Klucel (hydroxypropylcellulose) (HPC)) was 97 % of control and the T/C (dose: 50.0 mg/kg/injection, schedule: Q04DX002 (ip), vehicle: Klucel (hydroxypropylcellulose) (HPC)) was 97 % of control.

In the case of CS(=O)(=O)CC1OC(n2nnc3c(N)ncnc32)C(O)C1O (centres undefined), the T/C (dose: 50.0 mg/kg/injection, schedule: Q01DX001 (ip), vehicle: saline with Tween-80) was 94 % of control, the T/C (dose: 100.0 mg/kg/injection, schedule: Q01DX001 (ip), vehicle: saline with Tween-80) was 102 % of control and the T/C (dose: 200.0 mg/kg/injection, schedule: Q01DX001 (ip), vehicle: saline with Tween-80) was 94 % of control.

In the case of Cc1ccc(S(=O)(=O)Nc2ccc(C(=O)O)c(Cl)c2)cc1, the T/C [19] was 108 % of control, the T/C [20] was 92 % of control and the T/C [21] was 104 % of control.

With CN=Cc1ccc([N+](=O)[O-])cc1 the T/C (dose: 75.0 mg/kg/injection, schedule: Q01DX001 (ip), vehicle: Klucel (hydroxypropylcellulose) (HPC)) was 91 % of control, the T/C (dose: 75.0 mg/kg/injection, schedule: Q01DX009 (ip), vehicle: Klucel (hydroxypropylcellulose) (HPC)) was 96 % of control and the T/C (dose: 150.0 mg/kg/injection, schedule: Q01DX001 (ip), vehicle: Klucel (hydroxypropylcellulose) (HPC)) was 91 % of control. The T/C (dose: 150.0 mg/kg/injection, schedule: Q01DX009 (ip), vehicle: Klucel (hydroxypropylcellulose) (HPC)) was 105 % of control, the T/C (dose: 300.0 mg/kg/injection, schedule: Q01DX001 (ip), vehicle: Klucel (hydroxypropylcellulose) (HPC)) was 96 % of control and the T/C (dose: 300.0 mg/kg/injection, schedule: Q01DX009 (ip), vehicle: Klucel (hydroxypropylcellulose) (HPC)) was 95 % of control.

For Cc1ccc(C(c2ccc(C)cc2)C(Cl)Cl)cc1, the T/C [25] was 96 % of control, the T/C [26] was 109 % of control and the T/C (dose: 400.0 mg/kg/injection, schedule: Q01DX009 (ip), vehicle: saline with Tween-80) was 107 % of control.

For O=[N+]([O-])c1ccc2c(c1)-c1ccccc1C1=NCCN12, the T/C (dose: 20.0 mg/kg/injection, schedule: Q04DX003 (ip), vehicle: Klucel (hydroxypropylcellulose) (HPC)) was 91 % of control, the T/C (dose: 25.0 mg/kg/injection, schedule: Q01DX009 (ip), vehicle: Klucel (hydroxypropylcellulose) (HPC)) was 105 % of control and the T/C [1] was 96 % of control. The T/C (dose: 50.0 mg/kg/injection, schedule: Q01DX009 (ip), vehicle: Klucel (hydroxypropylcellulose) (HPC)) was 102 % of control, the T/C [2] was 102 % of control and the T/C [16] was 105 % of control. The T/C [22] was 101 % of control.

In the case of CC(C)(CCCOc1ccccc1)NC(=O)c1ccccc1, the T/C [12] was 100 % of control, the T/C [13] was 100 % of control and the T/C [14] was 103 % of control. For the same molecule, the T/C [15] was 102 % of control.

C1CC2CC2CCC2CC12 (centres undefined) was tested, and the T/C [16] was 104 % of control, the T/C [22] was 101 % of control and the T/C [17] was 95 % of control. For the same molecule, the T/C [23] was 95 % of control, the T/C [18] was 102 % of control and the T/C [24] was 101 % of control.

With COc1cc(C=Nc2ccc3c(c2)OCO3)ccc1OC(=O)c1ccccc1 the T/C [3] was 96 % of control, the T/C [5] was 100 % of control and the T/C [7] was 93 % of control.

With CC1CSCC(C)O1 (centres undefined) the T/C (dose: 50.0 mg/kg/injection, schedule: Q01DX009 (ip), vehicle: saline with Tween-80) was 95 % of control, the T/C [25] was 284 % of control and the T/C [26] was 95 % of control.

In the case of COCBr, the T/C [9] was 110 % of control, the T/C [4] was 103 % of control and the T/C [10] was 101 % of control. For the same molecule, the T/C [6] was 103 % of control and the T/C [8] was 94 % of control.

For Cc1ccc(S(=O)(=O)NNc2c3ccccc3nc3ccc(Cl)cc23)cc1, the T/C [3] was 101 % of control, the T/C [5] was 97 % of control and the T/C [7] was 97 % of control.

OC1(C#CI)CCCCC1 was tested, and the T/C [16] was 100 % of control and the T/C [17] was 96 % of control.

With Clc1ccc(NC2=NCCS2)cc1 the T/C [16] was 104 % of control, the T/C [17] was 100 % of control and the T/C [18] was 93 % of control.

Source: PubChem BioAssay AID248 (DTP/NCI, 2004)
